Reference: ChEMBL document CHEMBL3864125, “Design, synthesis and evaluation of 4-dimethylamine flavonoid derivatives as potential multifunctional anti-Alzheimer agents” (Eur J Med Chem, 2016)
Calls of active or inactive are those of the source. The rule behind the calls is not given here.

Legend:
[1] = molecular target: Acetylcholinesterase (Electrophorus electricus, UniProt O42275)
Description: Inhibition of electric eel AChE using ATC as substrate preincubated for 15 mins followed by substrate addition by UV-spectrophotometric analysis

[2] = molecular target: Cholinesterase (Equus caballus, UniProt P81908)
Description: Inhibition of horse serum BChE using BTC as substrate preincubated for 15 mins followed by substrate addition by UV-spectrophotometric analysis

[3] = molecular target: Acetylcholinesterase (Electrophorus electricus) (UniProt O42275); assay: Mixed-type inhibition of electric eel AChE using ATC as substrate at 1.25 to 5 uM preincubated for 15 mins followed by substrate addition by Lineweavere-Burk plot analysis
Acetylcholinesterase (Electrophorus electricus), sequence (O42275 24-633 limits assumed): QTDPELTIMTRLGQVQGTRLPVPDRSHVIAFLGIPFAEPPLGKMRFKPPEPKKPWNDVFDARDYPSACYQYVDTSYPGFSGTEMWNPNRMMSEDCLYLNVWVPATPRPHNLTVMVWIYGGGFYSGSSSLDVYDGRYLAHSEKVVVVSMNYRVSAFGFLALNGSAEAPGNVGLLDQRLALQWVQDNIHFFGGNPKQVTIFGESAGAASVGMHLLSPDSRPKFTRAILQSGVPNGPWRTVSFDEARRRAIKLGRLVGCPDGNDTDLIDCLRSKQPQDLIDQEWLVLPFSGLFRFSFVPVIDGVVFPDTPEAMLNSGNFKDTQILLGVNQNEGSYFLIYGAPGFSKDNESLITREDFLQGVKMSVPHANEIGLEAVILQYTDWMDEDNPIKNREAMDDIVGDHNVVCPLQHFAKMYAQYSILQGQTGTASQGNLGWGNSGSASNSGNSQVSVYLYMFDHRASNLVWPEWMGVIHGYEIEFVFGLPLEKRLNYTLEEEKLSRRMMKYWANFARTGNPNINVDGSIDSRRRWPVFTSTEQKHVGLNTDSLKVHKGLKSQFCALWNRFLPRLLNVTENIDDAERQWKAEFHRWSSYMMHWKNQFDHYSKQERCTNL

[4] = molecular target: Cholinesterase (Equus caballus) (UniProt P81908); details: 125 to 500 nM
Cholinesterase (Equus caballus), sequence (P81908 whole entry): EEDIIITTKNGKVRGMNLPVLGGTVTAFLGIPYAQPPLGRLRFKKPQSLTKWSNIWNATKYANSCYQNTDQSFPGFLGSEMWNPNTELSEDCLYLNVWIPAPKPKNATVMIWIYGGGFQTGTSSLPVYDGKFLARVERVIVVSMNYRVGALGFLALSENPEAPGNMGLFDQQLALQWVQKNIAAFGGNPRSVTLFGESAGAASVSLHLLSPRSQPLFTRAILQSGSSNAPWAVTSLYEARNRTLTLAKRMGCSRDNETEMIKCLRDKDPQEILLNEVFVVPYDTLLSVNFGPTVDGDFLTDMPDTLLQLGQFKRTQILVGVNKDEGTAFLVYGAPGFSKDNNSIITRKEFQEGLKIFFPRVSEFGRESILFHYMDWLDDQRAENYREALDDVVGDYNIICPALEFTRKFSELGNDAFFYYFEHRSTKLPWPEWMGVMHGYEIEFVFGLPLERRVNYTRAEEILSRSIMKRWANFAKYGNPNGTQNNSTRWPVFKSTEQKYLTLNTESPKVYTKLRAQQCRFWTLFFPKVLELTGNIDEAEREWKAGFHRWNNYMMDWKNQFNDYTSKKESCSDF

[5] = system: PC-12; assay: Protective effect against H2O2-induced cell death in rat PC12 cells at 5 uM preincubated for 2 hrs followed by H2O2 addition for 24 hrs by MTT assay; assay type: functional, cell-based
[6] = molecular target: Acetylcholinesterase (Electrophorus electricus) (UniProt O42275); assay: Mixed-type inhibition of electric eel AChE using ATC as substrate at 25 to 100 nM preincubated for 15 mins followed by substrate addition by Lineweavere-Burk plot analysis
[7] = molecular target: T1, Amyloid-beta precursor protein (Homo sapiens, UniProt P05067)
T1 sequence (P05067 whole entry): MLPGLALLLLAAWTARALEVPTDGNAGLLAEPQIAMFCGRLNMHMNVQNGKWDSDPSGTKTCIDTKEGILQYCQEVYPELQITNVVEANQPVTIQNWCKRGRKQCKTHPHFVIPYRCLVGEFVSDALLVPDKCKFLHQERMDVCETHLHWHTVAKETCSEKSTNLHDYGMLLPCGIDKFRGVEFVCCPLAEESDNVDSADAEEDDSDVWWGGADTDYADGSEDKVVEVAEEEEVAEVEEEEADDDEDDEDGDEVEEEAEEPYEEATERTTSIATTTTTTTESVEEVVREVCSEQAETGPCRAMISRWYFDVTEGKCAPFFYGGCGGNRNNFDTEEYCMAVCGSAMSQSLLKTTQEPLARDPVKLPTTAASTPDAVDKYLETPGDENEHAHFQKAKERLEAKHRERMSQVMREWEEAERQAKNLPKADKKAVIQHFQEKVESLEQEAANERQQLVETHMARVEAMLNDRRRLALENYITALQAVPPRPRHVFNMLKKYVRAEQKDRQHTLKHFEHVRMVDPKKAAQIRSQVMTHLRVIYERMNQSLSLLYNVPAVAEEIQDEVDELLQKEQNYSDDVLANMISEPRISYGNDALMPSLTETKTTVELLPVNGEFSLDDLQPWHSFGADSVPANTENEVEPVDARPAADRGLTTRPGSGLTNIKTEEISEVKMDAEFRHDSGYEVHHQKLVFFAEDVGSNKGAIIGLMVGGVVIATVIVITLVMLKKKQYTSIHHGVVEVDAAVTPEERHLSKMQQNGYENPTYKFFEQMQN
Description: Inhibition of self-mediated amyloid beta (1 to 42) (unknown origin) aggregation after 48 hrs by thioflavin T fluorescence assay

[8] = species on record: Rattus norvegicus; assay: Cytotoxicity against rat PC12 cells assessed as reduction in cell viability at 1 to 5 uM after 2 hrs by MTT assay; assay type: toxicity; details: pc-12, 2 h
[9] = molecular target: T1, Amyloid-beta precursor protein; assay: Potency index, ratio of curcumin IC50 to compound IC50 for self-mediated amyloid beta (1 to 42) (unknown origin) aggregation
[10] = system: PC-12; assay: Antioxidant activity in rat PC12 cells assessed as decrease of H2O2-induced ROS production at 2.5 uM preincubated for 2 hrs followed by H2O2 addition for 24 hrs by DCFH-DA /DAPI-based fluorescence assay; assay type: functional, cell-based
[11] = molecular target: Cholinesterase (Equus caballus) (UniProt P81908); assay: Mixed-type inhibition of horse serum BChE using BTC as substrate at 12.5 to 100 nM preincubated for 15 mins followed by substrate addition by Lineweavere-Burk plot analysis
[12] = system: PC-12; assay: Protective effect against H2O2-induced cell death in rat PC12 cells at 1 to 5 uM preincubated for 2 hrs followed by H2O2 addition for 24 hrs by MTT assay; assay type: functional, cell-based

Acetylcholinesterase, sequence (O42275 whole entry): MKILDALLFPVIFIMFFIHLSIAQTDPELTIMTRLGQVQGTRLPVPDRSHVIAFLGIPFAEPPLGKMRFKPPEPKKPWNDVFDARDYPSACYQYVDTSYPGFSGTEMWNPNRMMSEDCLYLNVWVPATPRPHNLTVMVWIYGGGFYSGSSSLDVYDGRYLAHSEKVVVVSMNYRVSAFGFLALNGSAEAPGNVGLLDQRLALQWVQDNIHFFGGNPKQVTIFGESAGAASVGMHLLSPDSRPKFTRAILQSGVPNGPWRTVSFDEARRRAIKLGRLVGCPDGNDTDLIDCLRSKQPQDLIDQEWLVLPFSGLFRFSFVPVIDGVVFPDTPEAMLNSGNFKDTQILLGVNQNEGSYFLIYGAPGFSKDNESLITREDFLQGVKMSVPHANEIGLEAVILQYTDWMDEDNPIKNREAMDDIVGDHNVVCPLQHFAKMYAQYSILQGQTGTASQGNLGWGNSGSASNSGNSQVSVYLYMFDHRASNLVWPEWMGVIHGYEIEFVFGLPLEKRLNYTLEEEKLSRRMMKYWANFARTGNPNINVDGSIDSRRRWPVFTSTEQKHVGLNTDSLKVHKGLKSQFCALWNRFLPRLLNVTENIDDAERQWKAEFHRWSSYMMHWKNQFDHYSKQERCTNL
Cholinesterase, sequence (P81908 whole entry): as the sequence (P81908 whole entry) above

SMILES	IC50 [1] [nM]	IC50 [2] [nM]	further results
CN(C)c1ccc(-c2cc(=O)c3ccc(OCC(=O)NCCCNc4c5c(nc6ccccc46)CCCC5)cc3o2)cc1	769	266	
CN(C)CCCNC(=O)COc1ccc2c(=O)cc(-c3ccc(N(C)C)cc3)oc2c1	11900	13600	
CN(C)c1ccc(-c2cc(=O)c3ccc(OCC(=O)NCCCN4CCCC4)cc3o2)cc1	7620	21600	
CN(C)c1ccc(-c2cc(=O)c3ccc(OCC(=O)NCCCCCCCCN4CCCC4)cc3o2)cc1	2300	238	inhibition [3]: Active; inhibition [4]: Active
CN(C)c1ccc(-c2cc(=O)c3ccc(OCC(=O)NCCCCCCCCNc4c5c(nc6ccccc46)CCCC5)cc3o2)cc1	94.6	24.7	
CN(C)c1ccc(-c2cc(=O)c3ccc(OCC(=O)NCCCCNc4c5c(nc6ccccc46)CCCC5)cc3o2)cc1	1460	335	
CN(C)c1ccc(-c2cc(=O)c3ccc(OCC(=O)NCCCCN4CCCC4)cc3o2)cc1	4830	11600	
CN(C)c1ccc(-c2cc(=O)c3ccc(OCC(=O)NCCNc4c5c(nc6ccccc46)CCCC5)cc3o2)cc1	418	814	
CN(C)c1ccc(-c2cc(=O)c3ccc(OCC(=O)NCCCCCCN4CCCC4)cc3o2)cc1	3200	1350	
CN(C)CCNC(=O)COc1ccc2c(=O)cc(-c3ccc(N(C)C)cc3)oc2c1	5240	10700	
CN(C)c1ccc(-c2cc(=O)c3ccc(OCC(=O)NCCN4CCCC4)cc3o2)cc1	3130	27200	
CN(C)c1ccc(-c2cc(=O)c3ccc(OCC(=O)NCCCCCCNc4c5c(nc6ccccc46)CCCC5)cc3o2)cc1	59.6	46.2	Activity [5]: Active; inhibition [6]: Active; IC50 [7]: 9470 nM; Activity [8]: Non-Toxic; Ratio IC50 [9]: 2; Activity [10]: Active; inhibition [11]: Active; Activity [12]: Active
O=c1c(O)c(-c2ccc(O)c(O)c2)oc2cc(O)cc(O)c12			Activity [5]: Active; Activity [10]: Active
